Experimental data published in ChEMBL document CHEMBL3132838, “Synthesis of chromenoindole derivatives from Robinia pseudoacacia” (Medchemcomm, 2013).
Activity calls are given as the source filed them. The rule behind the calls is not given here.

How the values were obtained:
[1] = test system: HCT-116; experiment: Cytotoxicity against human p53-positive HCT116 cells assessed as cell viability up to 100 uM after 24 hrs by MTT assay; format: functional, cell-based
[2] = test system: HL-60; experiment: Cytotoxicity against human HL60 cells assessed as cell survival at 200 uM after 72 hrs by MTT assay relative to control; format: functional; details: HL-60, 72 h, read-out: Survival
[3] = test system: HL-60; experiment: Cytotoxicity against human HL60 cells assessed as cell survival at 40 uM after 72 hrs by MTT assay relative to control; format: functional; details: HL-60, 72 h, read-out: Survival
[4] = test system: Steinernema feltiae; experiment: Nematicidal activity against Steinernema feltiae assessed as viability up to 200 uM after 48 hrs by microscopic analysis; format: functional
[5] = target: T1, Aromatase (Homo sapiens, UniProt P11511); experiment: Inhibition of human placental aromatase
T1 sequence (P11511 whole entry): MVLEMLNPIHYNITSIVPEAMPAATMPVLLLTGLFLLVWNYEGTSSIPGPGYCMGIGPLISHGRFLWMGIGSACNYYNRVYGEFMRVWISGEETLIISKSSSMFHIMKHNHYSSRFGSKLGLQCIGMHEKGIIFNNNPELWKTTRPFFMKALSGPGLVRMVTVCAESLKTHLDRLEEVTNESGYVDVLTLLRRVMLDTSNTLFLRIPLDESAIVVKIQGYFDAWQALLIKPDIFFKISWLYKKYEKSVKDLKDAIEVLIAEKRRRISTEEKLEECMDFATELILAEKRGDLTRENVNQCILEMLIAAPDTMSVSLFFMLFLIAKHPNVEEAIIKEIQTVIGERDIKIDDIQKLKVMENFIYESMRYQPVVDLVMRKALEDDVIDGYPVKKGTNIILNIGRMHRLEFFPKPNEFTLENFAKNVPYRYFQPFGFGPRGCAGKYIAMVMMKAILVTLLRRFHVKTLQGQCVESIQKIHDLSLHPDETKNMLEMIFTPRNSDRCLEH

[6] = test system: Radical scavenging activity; experiment: Antioxidant activity assessed as DPPH radical scavenging activity; format: functional
[7] = test system: HCT-116; experiment: Cytotoxicity against human p53-positive HCT116 cells assessed as cell viability after 24 hrs by MTT assay; format: functional, cell-based; details: HCT-116, 24 h

Compound	Activity [1]	viability at 200 µM [2]	viability at 40 µM [3]	Activity [4]	IC50 [5]	IC50 [6]	IC50 [7]
COc1ccc2c(c1)N[C@H]1c3ccc(O)cc3OC[C@@H]21 (racemic)	inactive	27%	72%	inactive	> 300 µM	> 300 µM	–
COc1ccc2c3c([nH]c2c1)-c1ccc(O)cc1OC3	–	–	–	–	–	–	66.1 µM
